“And” between values parts separate entries of the source, which are not always exact repeats. Identical values can stand only once. Toxic doses and inconclusive results are not listed.

This test concerns P388 leukemia ip, CD2F1 mice, survival T/C. Description: NCI In Vivo Anticancer Drug Screen. Data for tumor model P388 Leukemia (intraperitoneal) in CD2F1 (CDF1) mice. Conditions: endpoint: median survival time, higher = longer survival. In outline: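 Mice carrying the transplanted tumor received test compound or vehicle. Survival was recorded in each group, and the value is the treated-group measurement divided by that of the vehicle-treated control group.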

Setting [1] is: dose: 100.0 mg/kg/injection, schedule: Q04DX003 (ip), vehicle: Klucel (hydroxypropylcellulose) (HPC).
Where [2] appears, read: dose: 200.0 mg/kg/injection, schedule: Q04DX003 (ip), vehicle: Klucel (hydroxypropylcellulose) (HPC).
The mark [3] stands for this setting: dose: 400.0 mg/kg/injection, schedule: Q04DX003 (ip), vehicle: Klucel (hydroxypropylcellulose) (HPC).

Take `COC1C(O)CC(OC2CC(Oc3cc4cc5c(c(O)c4c(O)c3C)C(=O)[C@@H](OC3CC(OC4CC(OC6CC(C)(O)C(OC(C)=O)C(C)O6)C(O)C(C)O4)C(O)C(C)O3)[C@H]([C@H](OC)C(=O)[C@@H](O)[C@@H](C)O)C5)OC(C)C2OC(C)=O)OC1C` (some centres undefined): the T/C reads like this: (dose: 0.02 mg/kg/injection, schedule: Q01DX001 (ip), vehicle: other) 114 % of control; (dose: 0.02 mg/kg/injection, schedule: Q01DX009 (ip), vehicle: saline sonified) 150 % of control; (dose: 0.03 mg/kg/injection, schedule: Q01DX005 (ip), vehicle: saline) 150 % of control; (dose: 0.03 mg/kg/injection, schedule: Q01DX005 (iv), vehicle: saline) 95 % of control; (dose: 0.03 mg/kg/injection, schedule: Q01DX009 (ip), vehicle: saline) 154 % of control; (dose: 0.04 mg/kg/injection, schedule: Q01DX009 (ip), vehicle: saline sonified) 165 % of control. For the same molecule, the T/C by setting is: (dose: 0.05 mg/kg/injection, schedule: Q01DX005 (ip), vehicle: saline) 155 % of control; (dose: 0.06 mg/kg/injection, schedule: Q01DX005 (ip), vehicle: saline) 175 % of control; (dose: 0.08 mg/kg/injection, schedule: Q01DX009 (ip), vehicle: saline sonified) 180 % of control; (dose: 0.1 mg/kg/injection, schedule: Q01DX005 (ip), vehicle: saline) 155 % of control; (dose: 0.1 mg/kg/injection, schedule: Q01DX005 (iv), vehicle: saline) 98 % of control; (dose: 0.12 mg/kg/injection, schedule: Q01DX005 (ip), vehicle: saline) 190 % of control. The T/C runs as follows: (dose: 0.12 mg/kg/injection, schedule: Q04DX003 (ip), vehicle: saline) 154 % of control; (dose: 0.15 mg/kg/injection, schedule: Q01DX009 (ip), vehicle: saline sonified) 180 % of control; (dose: 0.2 mg/kg/injection, schedule: Q01DX005 (ip), vehicle: saline) 158 % of control; (dose: 0.2 mg/kg/injection, schedule: Q01DX005 (iv), vehicle: saline) 100 % of control; (dose: 0.25 mg/kg/injection, schedule: Q01DX005 (ip), vehicle: saline) 220 % of control; (dose: 0.25 mg/kg/injection, schedule: Q04DX003 (ip), vehicle: saline) 175 % of control. Also, the T/C runs as follows: (dose: 0.3 mg/kg/injection, schedule: Q01DX009 (ip), vehicle: saline sonified) 180 % of control; (dose: 0.3 mg/kg/injection, schedule: Q04DX003 (ip), vehicle: saline sonified) 181 % of control; (dose: 0.4 mg/kg/injection, schedule: Q01DX005 (ip), vehicle: saline) 229 % of control; (dose: 0.5 mg/kg/injection, schedule: Q01DX001 (ip), vehicle: other) 158 % of control; (dose: 0.5 mg/kg/injection, schedule: Q01DX001 (ip), vehicle: saline) 172 % of control; (dose: 0.5 mg/kg/injection, schedule: Q04DX003 (ip), vehicle: saline) 87 % of control.
For `O=C(O)[C@H](Cc1ccccc1)N1C(=O)N[C@@H](Cc2ccccc2)C1=O`, the T/C reads like this: (dose: 60.0 mg/kg/injection, schedule: Q01DX005 (ip), vehicle: saline with Tween-80) 96 % of control; (dose: 120.0 mg/kg/injection, schedule: Q01DX005 (ip), vehicle: saline with Tween-80) 104 % of control; (dose: 240.0 mg/kg/injection, schedule: Q01DX005 (ip), vehicle: saline with Tween-80) 99 % of control.
As for `CCn1c2ccccc2c2cc(N)c(N=Nc3ccc(-c4ccc(N)c(OC)c4)cc3OC)cc21`, the T/C by setting is: under setting [1], 94 % of control; under setting [2], 95 % of control; under setting [3], 88 % of control.
For the molecule `COc1ccncc1CCc1cnccc1OC`, the T/C reads like this: (dose: 100.0 mg/kg/injection, schedule: Q04DX003 (ip), vehicle: saline) 99 % of control; (dose: 200.0 mg/kg/injection, schedule: Q04DX003 (ip), vehicle: saline) 93 % of control; (dose: 400.0 mg/kg/injection, schedule: Q04DX003 (ip), vehicle: saline) 90 % of control.
For `CC1CC[P+](Cc2ccccc2)(c2ccccc2)CC1` (centres undefined), the T/C was 98 % of control (dose: 1.56 mg/kg/injection, schedule: Q04DX002 (ip), vehicle: saline); 95 % of control (dose: 3.13 mg/kg/injection, schedule: Q04DX002 (ip), vehicle: saline); 90 % of control (dose: 6.25 mg/kg/injection, schedule: Q04DX002 (ip), vehicle: saline).
In the case of `CC(=O)OC(C(=O)O)N1C(=O)C2C3C=CC(C2C1=O)C1C2C(=O)N(C(OC(C)=O)C(=O)O)C(=O)C2C31` (centres undefined), the T/C is, setting by setting: (dose: 25.0 mg/kg/injection, schedule: Q01DX009 (ip), vehicle: water) 103 % of control; (dose: 50.0 mg/kg/injection, schedule: Q01DX009 (ip), vehicle: water) 110 % of control; (dose: 100.0 mg/kg/injection, schedule: Q01DX009 (ip), vehicle: water) 110 % of control and 113 % of control and 123 % of control.
Regarding `CC(=O)O[C@H]1C2c3c(ccc4c(=O)cc(-c5ccccc5)oc34)OC2OC1(C)C` (some centres undefined), the T/C is, setting by setting: (dose: 0.4 mg/kg/injection, schedule: Q01DX005 (ip), vehicle: Klucel (hydroxypropylcellulose) (HPC)) 97 % of control; (dose: 0.8 mg/kg/injection, schedule: Q01DX005 (ip), vehicle: Klucel (hydroxypropylcellulose) (HPC)) 92 % of control; (dose: 1.6 mg/kg/injection, schedule: Q01DX005 (ip), vehicle: Klucel (hydroxypropylcellulose) (HPC)) 97 % of control; (dose: 3.2 mg/kg/injection, schedule: Q01DX005 (ip), vehicle: Klucel (hydroxypropylcellulose) (HPC)) 98 % of control.
As to `CCCCc1c(OC)cc(O)c2c1C(=O)c1[nH]c(C(=O)O)c(O)c(=O)c1C2=O`, the T/C is 98 % of control (dose: 7.5 mg/kg/injection, schedule: Q01DX009 (ip), vehicle: Klucel (hydroxypropylcellulose) (HPC)); 100 % of control (dose: 15.0 mg/kg/injection, schedule: Q01DX009 (ip), vehicle: Klucel (hydroxypropylcellulose) (HPC)); 95 % of control (dose: 30.0 mg/kg/injection, schedule: Q01DX009 (ip), vehicle: Klucel (hydroxypropylcellulose) (HPC)).
As to `c1ccc(P23(Oc4ccccc4S2)Oc2ccccc2S3)cc1`, the T/C under setting [1] is 93 % of control, the T/C under setting [2] was 90 % of control and the T/C under setting [3] is 91 % of control.
Regarding `NC(=O)c1ncn(C2OC(COP(=O)(O)O)C(O)C2O)n1` (centres undefined), the T/C is 104 % of control and 106 % of control (dose: 50.0 mg/kg/injection, schedule: Q01DX009 (ip), vehicle: saline); 107 % of control and 109 % of control (dose: 100.0 mg/kg/injection, schedule: Q01DX009 (ip), vehicle: saline); 113 % of control and 120 % of control (dose: 200.0 mg/kg/injection, schedule: Q01DX009 (ip), vehicle: saline).
Take `C[C@H]1C(=O)O[C@@H]2CCN3CC=C(COC(=O)[C@](C)(O)[C@@]1(C)O)[C@H]23`: the T/C was 95 % of control (dose: 3.13 mg/kg/injection, schedule: Q01DX010 (ip), vehicle: saline); 100 % of control (dose: 6.25 mg/kg/injection, schedule: Q01DX010 (ip), vehicle: saline); 104 % of control (dose: 12.5 mg/kg/injection, schedule: Q01DX010 (ip), vehicle: saline); 100 % of control (dose: 25.0 mg/kg/injection, schedule: Q01DX010 (ip), vehicle: saline).
`COc1cccc2c1C(=O)c1c(O)c3c(c(O)c1C2=O)C[C@@](O)(C(C)=O)C[C@@H]3OC1CC(NC(C)=O)C(O)C(C)O1` (some centres undefined): the T/C is 113 % of control (dose: 2.0 mg/kg/injection, schedule: Q01DX009 (ip), vehicle: saline); 157 % of control (dose: 3.13 mg/kg/injection, schedule: Q01DX009 (ip), vehicle: saline); 109 % of control (dose: 6.25 mg/kg/injection, schedule: Q01DX009 (ip), vehicle: saline); 166 % of control (dose: 12.5 mg/kg/injection, schedule: Q01DX009 (ip), vehicle: saline).
`[N-]=[N+]=N/C=C/C(=O)OCCBr`: the T/C was 97 % of control (dose: 15.0 mg/kg/injection, schedule: Q01DX005 (ip), vehicle: saline); 103 % of control (dose: 30.0 mg/kg/injection, schedule: Q01DX005 (ip), vehicle: saline); 102 % of control and 97 % of control (dose: 60.0 mg/kg/injection, schedule: Q01DX005 (ip), vehicle: saline).
For `O=c1c2ccccc2sc2c([N+](=O)[O-])ccc(NCCNCCO)c12`, the T/C (dose: 50.0 mg/kg/injection, schedule: Q01DX009 (ip), vehicle: saline with Tween-80) is 120 % of control and 123 % of control.
